# The source made the active and inactive calls. The rule behind the calls is not given here.
# Key:
# Pseudomonas aeruginosa = test: Antibacterial activity against Pseudomonas aeruginosa ATCC 10145 at 0.1 mg/mL incubated for 12 hrs by agar dilution method; assay type: functional, organism-based
# Escherichia coli = test: Antibacterial activity against Escherichia coli ATCC 11775 at 0.1 mg/mL incubated for 12 hrs by agar dilution method; assay type: functional, organism-based
# Staphylococcus aureus [1] = test: Antibacterial activity against Staphylococcus aureus ATCC 6538 at 0.1 mg/mL incubated for 12 hrs by agar dilution method; assay type: functional, organism-based
# Staphylococcus aureus [2] = test: Antibacterial activity against methicillin-resistant Staphylococcus aureus subsp. aureus ATCC 43300 at 0.1 mg/mL incubated for 12 hrs by agar dilution method; assay type: functional, organism-based
# Candida albicans = test: Antifungal activity against Candida albicans ATCC 10231 at 0.1 mg/mL incubated for 12 hrs by agar dilution method; assay type: functional, organism-based
# Nakaseomyces glabratus = test: Antifungal activity against Candida glabrata ATCC 2001 at 0.1 mg/mL incubated for 12 hrs by agar dilution method; assay type: functional, organism-based
# A549 = test: Cytotoxicity against human A549 cells incubated for 48 hrs by CCK8 assay; assay type: functional, cell-based
# PC-9 = test: Cytotoxicity against human PC-9 cells incubated for 48 hrs by CCK8 assay; assay type: functional, cell-based
# L02 = test: Cytotoxicity against human L02 cells incubated for 48 hrs by CCK8 assay; assay type: toxicity, cell-based; conditions: l02, 48 h
# HCT-116 = test: Cytotoxicity against human HCT-116 cells incubated for 48 hrs by CCK8 assay; assay type: functional, cell-based
Structure (SMILES),Activity (Pseudomonas aeruginosa),Activity (Escherichia coli),Activity (Staphylococcus aureus [1]),Activity (Staphylococcus aureus [2]),Activity (Candida albicans),Activity (Nakaseomyces glabratus),Activity (A549),Activity (PC-9),Activity (L02),Activity (HCT-116)
COc1cc(=O)oc(/C=C/C=C/C=C\[C@@]2(C)O[C@]3(C)[C@@H](O)[C@](C)(O[C@@H]3C)[C@@H]2O)c1C,inactive,inactive,inactive,inactive,inactive,inactive,inactive,inactive,Non-toxic,–
COc1cc(=O)oc(/C=C/C=C/C=C/C(C)=C/[C@]2(C)O[C@H](C)[C@](C)(O)[C@H]2O)c1C,inactive,inactive,inactive,inactive,inactive,inactive,inactive,–,Non-toxic,inactive
COc1cc(=O)oc(/C=C/C=C/C=C/[C@]2(C)O[C@]3(C)[C@@H](O)[C@@](C)(O[C@@H]3C)[C@H]2O)c1C,inactive,inactive,inactive,inactive,inactive,inactive,inactive,inactive,Non-toxic,–
COc1cc(=O)oc(\C=C/C=C/C=C/C(C)=C/[C@]2(C)O[C@H](C)[C@](C)(O)[C@H]2O)c1C,inactive,inactive,inactive,inactive,inactive,inactive,inactive,–,Non-toxic,inactive
COc1cc(=O)oc(/C=C/C=C/C=C/[C@@]2(C)O[C@]3(C)[C@@H](O)[C@](C)(O[C@@H]3C)[C@H]2O)c1C,inactive,inactive,inactive,inactive,inactive,inactive,inactive,inactive,Non-toxic,–
COc1cc(=O)oc(/C=C/C=C/C=C\[C@]2(C)O[C@]3(C)[C@@H](O)[C@](C)(O[C@@H]3C)[C@@H]2O)c1C,inactive,inactive,inactive,inactive,inactive,inactive,inactive,inactive,Non-toxic,–
COc1cc(=O)oc(/C=C/C=C/C=C/[C@]2(C)O[C@]3(C)[C@@H](O)[C@@](C)(O[C@@H]3C)[C@@H]2O)c1C,inactive,inactive,inactive,inactive,inactive,inactive,inactive,inactive,Non-toxic,–
COc1cc(=O)oc(/C=C/C=C/C=C/[C@@]2(C)O[C@]3(C)[C@@H](O)[C@@](C)(O[C@@H]3C)C2=O)c1C,inactive,inactive,inactive,inactive,inactive,inactive,inactive,inactive,Non-toxic,–
COc1cc(=O)oc(/C=C/C=C/C=C/[C@]2(C)O[C@]3(C)[C@@H](O)[C@@](C)(O[C@@H]3C)C2=O)c1C,inactive,inactive,inactive,inactive,inactive,inactive,inactive,inactive,Non-toxic,–
COc1cc(=O)oc(\C=C/C=C/C=C/[C@]2(C)O[C@]3(C)[C@@H](O)[C@@](C)(O[C@@H]3C)[C@@H]2O)c1C,inactive,inactive,inactive,inactive,inactive,inactive,inactive,inactive,Non-toxic,–
COc1cc(=O)oc(/C=C/C=C/C=C/[C@@]2(C)O[C@@]3(C)[C@@H](C)O[C@](C)(C2=O)[C@H]3O)c1C,inactive,inactive,inactive,inactive,inactive,inactive,inactive,inactive,Non-toxic,–
COc1cc(=O)oc(/C=C/C=C/C=C/C(C)=C\[C@]2(C)O[C@H](C)[C@](C)(O)[C@H]2O)c1C,inactive,inactive,inactive,inactive,inactive,inactive,inactive,–,Non-toxic,inactive

# Source: ChEMBL document CHEMBL6153093, “Aurovertins from a Marine-Derived Penicillium Species and Nonenzymatic Reactions in Their Formation” (J Nat Prod, 2025)
